In brackets after ≈: the same amount, converted by molar mass. Activity calls are given as the source filed them. The calls are words filed in the database; no cut-off is given here.
How the values were obtained:
[1] = system: Cricetinae gen. sp.; test: Oral dose of 20 mg/Kg (30 min prior to instillation of elastase) was tested for the inhibition of elastase-induced lung hemorrhage in hamster; Not active; assay type: functional, organism-based; conditions: Cricetulus griseus
[2] = target: T1, Neutrophil elastase (Homo sapiens, UniProt P08246); test: In vitro inhibition of human leukocyte elastase mediated hydrolysis of the synthetic substrate MeO-Suc-Ala-Ala-Pro-Val-pNA
T1 sequence (P08246 whole entry): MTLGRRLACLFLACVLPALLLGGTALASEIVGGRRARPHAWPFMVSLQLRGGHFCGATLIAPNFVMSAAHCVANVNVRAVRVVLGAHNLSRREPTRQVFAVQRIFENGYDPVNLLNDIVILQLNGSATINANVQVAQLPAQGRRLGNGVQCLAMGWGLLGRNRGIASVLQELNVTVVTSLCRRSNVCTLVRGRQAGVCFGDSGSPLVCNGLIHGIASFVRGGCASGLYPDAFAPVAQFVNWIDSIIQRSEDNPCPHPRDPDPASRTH

[3] = Selectivity ratio for bovine pancreatic chymotrypsin and HLE
[4] = system: Cricetinae gen. sp.; test: Oral dose of 2.5 mg/Kg (30 min prior to instillation of elastase) was tested for the inhibition of elastase-induced lung hemorrhage in hamster; Not active; assay type: functional, organism-based; conditions: Cricetulus griseus
[5] = system: Cricetinae gen. sp.; test: Oral dose of 2.5 mg/Kg (90 min prior to instillation of elastase) was tested for the inhibition of elastase-induced lung hemorrhage in hamster; assay type: functional, Cricetulus griseus
[6] = system: Cricetinae gen. sp.; test: Oral dose of 20 mg/Kg (30 min prior to instillation of elastase) was tested for the inhibition of elastase-induced lung hemorrhage in hamster; assay type: functional, Cricetulus griseus
[7] = system: Cricetinae gen. sp.; test: Oral dose of 2.5 mg/Kg (30 min prior to instillation of elastase) was tested for the inhibition of elastase-induced lung hemorrhage in hamster; assay type: functional, Cricetulus griseus
[8] = Partition coefficient (logP); assay type: physicochemical; conditions: octanol/water
[9] = Solubility of compound in 0.01 M sodium phosphate buffer at pH = […]; assay type: physicochemical; conditions: pH 7.4
[10] = system: Cricetinae gen. sp.; test: Compound at an oral dose of 2.5 mg/Kg (90 min prior to instillation of elastase) was tested for the inhibition of elastase-induced lung hemorrhage in hamster; Not active; assay type: functional, organism-based; conditions: Cricetulus griseus
[11] = system: Cricetinae gen. sp.; test: Compound at an oral dose of 20 mg/Kg (90 min prior to instillation of elastase) was tested for the inhibition of elastase-induced lung hemorrhage in hamster; assay type: functional, Cricetulus griseus

Compound	inhibition [1]	Ki [2]	inhibition in vivo at 20 mg/kg [6]	other results
CC(C)C(NC(=O)Cn1c(-c2ccc([N+](=O)[O-])cc2)ncc(NC(=O)OCc2ccccc2)c1=O)C(=O)C(F)(F)F (stereo not drawn)	inactive	17 nM		Ratio [3]: 406
CC(C)C(NC(=O)Cn1c(-c2ccc(F)cc2)ncc(NS(=O)(=O)C2CCCCC2)c1=O)C(=O)C(F)(F)F (stereo not drawn)		1.6 nM		inhibition [4]: inactive
CC(C)C(NC(=O)Cn1c(-c2cccs2)ncc(N)c1=O)C(=O)C(F)(F)F (stereo not drawn)		52 nM	75%	inhibition in vivo at 2.5 mg/kg [5]: 37%; inhibition in vivo at 2.5 mg/kg [7]: 47%
CC(C)C(NC(=O)Cn1c(-c2ccc(F)cc2)ncc(NC(=O)OCc2ccccc2)c1=O)C(=O)C(F)(F)F (stereo not drawn)			54%	logP [8]: 2.2; solubility [9]: 6.9 µg/mL (≈ 12.6 µM)
CNc1cnc(-c2ccc(F)cc2)n(CC(=O)NC(C(=O)C(F)(F)F)C(C)C)c1=O (stereo not drawn)		46 nM	89%	inhibition [10]: inactive; inhibition in vivo at 2.5 mg/kg [7]: 43%
CC(C)C(NC(=O)Cn1c(-c2cc(F)cc(F)c2)ncc(NC(=O)OCc2ccccc2)c1=O)C(=O)C(F)(F)F (stereo not drawn)		20 nM	43%	Ratio [3]: 230
CC(C)C(NC(=O)Cn1c(-c2ccccc2)ccc(NC(=O)OCc2ccccc2)c1=O)C(=O)C(F)(F)F (stereo not drawn)	inactive			logP [8]: > 4
CC(C)C(NC(=O)Cn1c(-c2cccnc2)ncc(NC(=O)OCc2ccccc2)c1=O)C(=O)C(F)(F)F (stereo not drawn)		33 nM	59%	logP [8]: 1.3; solubility [9]: 580 µg/mL (≈ 1090 µM); Ratio [3]: 245
COC(=O)Nc1cnc(-c2ccc(F)cc2)n(CC(=O)NC(C(=O)C(F)(F)F)C(C)C)c1=O (stereo not drawn)			73%	inhibition in vivo at 2.5 mg/kg [7]: 39%
CC(C)C(NC(=O)Cn1c(-c2ccccc2)ncc(NC(=O)OCC(F)(F)F)c1=O)C(=O)C(F)(F)F (stereo not drawn)		40 nM		inhibition in vivo at 20 mg/kg [11]: 47%; inhibition in vivo at 2.5 mg/kg [5]: 39%
CC(C)C(NC(=O)Cn1c(-c2cccs2)ncc(NC(=O)OCc2ccccc2)c1=O)C(=O)C(F)(F)F (stereo not drawn)		11 nM	57%	logP [8]: 2; solubility [9]: 48 µg/mL (≈ 89.5 µM); Ratio [3]: 162
CC(C)C(NC(=O)Cn1c(-c2ccc(F)cc2)ncc(N)c1=O)B1OC(C)(C)C(C)(C)O1 (stereo not drawn)		6.2 nM	39%	inhibition [4]: inactive
CC(C)C(NC(=O)Cn1c(-c2cccs2)ncc(N)c1=O)B1OC(C)(C)C(C)(C)O1 (stereo not drawn)		4.9 nM	50%	inhibition [4]: inactive
CC(C)c1ncc(NC(=O)OCc2ccccc2)c(=O)n1CC(=O)NC(C(=O)C(F)(F)F)C(C)C (stereo not drawn)	inactive	170 nM		logP [8]: 2.6; solubility [9]: 40 µg/mL (≈ 80.6 µM); Ratio [3]: 100
CC(C)C(NC(=O)Cn1c(-c2cccs2)ncc(NC(=O)OC(C)(C)C)c1=O)C(=O)C(F)(F)F (stereo not drawn)		27 nM	92%	inhibition in vivo at 2.5 mg/kg [5]: 33%; inhibition in vivo at 2.5 mg/kg [7]: 50%
CCNc1cnc(-c2cccs2)n(CC(=O)NC(C(=O)C(F)(F)F)C(C)C)c1=O (stereo not drawn)		26 nM	52%	inhibition in vivo at 2.5 mg/kg [5]: 32%
CC(C)C(NC(=O)Cn1c(-c2cc(F)cc(F)c2)ncc(N)c1=O)C(=O)C(F)(F)F (stereo not drawn)		270 nM	72%	inhibition in vivo at 2.5 mg/kg [5]: 45%
CC(C)C(NC(=O)Cn1c(-c2ccc(Cl)cc2)ncc(NC(=O)OCc2ccccc2)c1=O)C(=O)C(F)(F)F (stereo not drawn)	inactive	18 nM		Ratio [3]: 322
CC(C)C(NC(=O)Cn1c(-c2ccc(NC(=O)C(F)(F)F)cc2)ncc(NC(=O)OCc2ccccc2)c1=O)C(=O)C(F)(F)F (stereo not drawn)	inactive	43 nM		

Compound	inhibition [1]	Ki [2]	inhibition in vivo at 20 mg/kg [6]	other results
CC(C)C(NC(=O)Cn1c(-c2ccc(N)cc2)ncc(NC(=O)OCc2ccccc2)c1=O)C(=O)C(F)(F)F (stereo not drawn)	inactive	3.6 nM		
Cc1cncc(C)c1COC(=O)Nc1cnc(-c2ccc(F)cc2)n(CC(=O)NC(B2OC(C)(C)C(C)(C)O2)C(C)C)c1=O (stereo not drawn)		0.96 nM		inhibition [4]: inactive
CC(C)C(NC(=O)Cn1c(-c2ccc(N)cc2)ncc(NS(C)(=O)=O)c1=O)C(=O)C(F)(F)F (stereo not drawn)	inactive			
CC(C)C(NC(=O)Cn1c(-c2cccs2)ncc(NC(=O)OCC(F)(F)F)c1=O)C(=O)C(F)(F)F (stereo not drawn)		48 nM		inhibition in vivo at 20 mg/kg [11]: 60%; inhibition in vivo at 2.5 mg/kg [5]: 41%
COC(=O)Nc1cnc(-c2ccc(F)cc2)n(CC(=O)NC(B2OC(C)(C)C(C)(C)O2)C(C)C)c1=O (stereo not drawn)		7.7 nM		inhibition [4]: inactive
CC(C)C(NC(=O)Cn1c(-c2ccc(F)cc2)ncc(NC(=O)OCc2ccccn2)c1=O)C(=O)C(F)(F)F (stereo not drawn)	inactive	22 nM		
COc1ccc(-c2ncc(NC(=O)OCc3ccccc3)c(=O)n2CC(=O)NC(C(=O)C(F)(F)F)C(C)C)cc1 (stereo not drawn)	inactive	8.1 nM		Ratio [3]: 272
CSC(=O)Nc1cnc(-c2ccc(F)cc2)n(CC(=O)NC(C(=O)C(F)(F)F)C(C)C)c1=O (stereo not drawn)		23 nM		inhibition in vivo at 2.5 mg/kg [5]: 50%
CSC(=O)Nc1cnc(-c2ccccc2)n(CC(=O)NC(C(=O)C(F)(F)F)C(C)C)c1=O (stereo not drawn)		16 nM		inhibition in vivo at 20 mg/kg [11]: 57%; inhibition in vivo at 2.5 mg/kg [5]: 32%
CC(C)C(NC(=O)Cn1c(-c2ccc(NC=O)cc2)ncc(NC(=O)OCc2ccccc2)c1=O)C(=O)C(F)(F)F (stereo not drawn)	inactive	9 nM		
COC(=O)Nc1cnc(-c2cccs2)n(CC(=O)NC(C(=O)C(F)(F)F)C(C)C)c1=O (stereo not drawn)		42 nM	80%	inhibition [10]: inactive; inhibition in vivo at 2.5 mg/kg [7]: 49%
CC(C)C(NC(=O)Cn1c(-c2ccccc2)ncc(NC(=O)C(F)(F)F)c1=O)C(=O)C(F)(F)F (stereo not drawn)		94 nM	73%	inhibition [10]: inactive; inhibition in vivo at 2.5 mg/kg [7]: 37%
CC(C)C(NC(=O)Cn1c(-c2cccs2)ncc(NC=O)c1=O)C(=O)C(F)(F)F (stereo not drawn)		100 nM		inhibition in vivo at 20 mg/kg [11]: 58%; inhibition in vivo at 2.5 mg/kg [5]: 37%
CC(C)C(NC(=O)Cn1c(C2CCCCC2)ncc(NC(=O)OCc2ccccc2)c1=O)C(=O)C(F)(F)F (stereo not drawn)	inactive	57 nM		logP [8]: 2.9; solubility [9]: 42 µg/mL (≈ 78.3 µM)
CC(C)C(NC(=O)Cn1c(-c2ccc(F)cc2)ncc(NC(=O)OCc2ccncc2)c1=O)C(=O)C(F)(F)F (stereo not drawn)	inactive	23 nM		
CC(C)C(NC(=O)Cn1c(-c2ccc(F)cc2)ncc(NS(=O)(=O)C2CCCCC2)c1=O)B1OC(C)(C)C(C)(C)O1 (stereo not drawn)		0.21 nM		inhibition [10]: inactive; inhibition in vivo at 2.5 mg/kg [7]: 31%
CC(C)C(NC(=O)Cn1c(-c2ccc(C(F)(F)F)cc2)ncc(NC(=O)OCc2ccccc2)c1=O)C(=O)C(F)(F)F (stereo not drawn)	inactive	42 nM		logP [8]: 2.3; solubility [9]: 25 µg/mL (≈ 41.8 µM); Ratio [3]: 164
CC(C)C(NC(=O)Cn1c(-c2cc(C(F)(F)F)cc(C(F)(F)F)c2)ncc(NC(=O)OCc2ccccc2)c1=O)C(=O)C(F)(F)F (stereo not drawn)	inactive	72 nM		
CC(C)C(NC(=O)Cn1c(-c2ccccc2)ncc(NC(=O)OCc2ccccc2)c1=O)C(=O)C(F)(F)F (stereo not drawn)			54%	logP [8]: 2.1

Source: ChEMBL document CHEMBL1128575, “Nonpeptidic inhibitors of human leukocyte elastase. 5. Design, synthesis, and X-ray crystallography of a series of orally active 5-aminopyrimidin-6-one-containing trifluoromethyl ketones” (J Med Chem, 1995)
